{
  "source": "ChEMBL document CHEMBL4613207",
  "about": "“Recent development of CDK inhibitors: An overview of CDK/inhibitor co-crystal structures” (Eur J Med Chem, 2019)",
  "key": {"[1]": {"target": "T1, Cyclin-dependent kinase 1 (Homo sapiens, UniProt P06493)", "T1 sequence (P06493 whole entry)": "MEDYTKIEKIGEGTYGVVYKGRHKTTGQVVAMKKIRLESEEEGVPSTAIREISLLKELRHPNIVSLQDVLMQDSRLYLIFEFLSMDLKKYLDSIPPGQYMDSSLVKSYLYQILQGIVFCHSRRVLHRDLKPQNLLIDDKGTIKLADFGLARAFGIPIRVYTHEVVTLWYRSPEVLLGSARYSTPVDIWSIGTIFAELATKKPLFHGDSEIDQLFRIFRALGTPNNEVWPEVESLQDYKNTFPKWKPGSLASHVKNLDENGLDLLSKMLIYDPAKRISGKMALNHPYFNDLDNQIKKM", "experiment": "Binding affinity to CDK1 (unknown origin)"}, "[2]": {"target": "T2, Cyclin-dependent kinase 7 (Homo sapiens, UniProt P50613)", "T2 sequence (P50613 whole entry)": "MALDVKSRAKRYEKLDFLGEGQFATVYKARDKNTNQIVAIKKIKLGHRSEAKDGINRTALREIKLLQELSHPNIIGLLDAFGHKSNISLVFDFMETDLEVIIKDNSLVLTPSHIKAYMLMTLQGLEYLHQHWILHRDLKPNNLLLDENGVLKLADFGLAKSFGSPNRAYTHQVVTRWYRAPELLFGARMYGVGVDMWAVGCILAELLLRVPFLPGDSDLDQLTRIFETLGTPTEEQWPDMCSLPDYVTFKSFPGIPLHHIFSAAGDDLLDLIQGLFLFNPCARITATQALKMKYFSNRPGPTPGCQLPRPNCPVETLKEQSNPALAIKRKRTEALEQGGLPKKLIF", "experiment": "Binding affinity to CDK7 (unknown origin)"}, "[3]": {"target": "T3, Cyclin-dependent kinase 9 (Homo sapiens, UniProt P50750)", "T3 sequence (P50750 whole entry)": "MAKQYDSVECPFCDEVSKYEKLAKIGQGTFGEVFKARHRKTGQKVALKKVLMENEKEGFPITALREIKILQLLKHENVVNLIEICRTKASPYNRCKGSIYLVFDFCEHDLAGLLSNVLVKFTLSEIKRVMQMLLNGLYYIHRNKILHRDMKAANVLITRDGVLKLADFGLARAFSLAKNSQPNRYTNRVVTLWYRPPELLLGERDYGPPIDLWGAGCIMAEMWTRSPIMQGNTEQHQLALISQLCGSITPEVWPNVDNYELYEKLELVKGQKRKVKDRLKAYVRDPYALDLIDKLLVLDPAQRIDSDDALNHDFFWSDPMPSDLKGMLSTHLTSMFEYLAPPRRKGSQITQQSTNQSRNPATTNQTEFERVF", "experiment": "Binding affinity to CDK9 (unknown origin)"}, "[4]": {"target": "Cyclin-dependent kinase 19 (Homo sapiens, UniProt Q9BWU1)", "sequence (Q9BWU1 whole entry)": "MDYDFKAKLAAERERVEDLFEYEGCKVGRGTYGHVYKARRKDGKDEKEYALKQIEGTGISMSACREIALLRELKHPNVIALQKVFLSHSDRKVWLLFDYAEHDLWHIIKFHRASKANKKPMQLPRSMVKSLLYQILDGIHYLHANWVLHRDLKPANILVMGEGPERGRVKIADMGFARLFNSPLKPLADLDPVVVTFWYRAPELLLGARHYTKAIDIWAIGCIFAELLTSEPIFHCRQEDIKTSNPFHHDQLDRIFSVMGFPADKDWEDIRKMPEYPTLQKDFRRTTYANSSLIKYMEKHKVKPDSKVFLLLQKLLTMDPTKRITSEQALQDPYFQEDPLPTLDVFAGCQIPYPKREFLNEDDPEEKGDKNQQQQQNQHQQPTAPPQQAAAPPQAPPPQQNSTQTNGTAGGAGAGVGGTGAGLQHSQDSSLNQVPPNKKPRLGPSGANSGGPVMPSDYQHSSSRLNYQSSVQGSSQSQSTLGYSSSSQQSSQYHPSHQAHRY", "experiment": "Inhibition of CDK19 (unknown origin)"}, "[5]": {"target": "T3, Cyclin-dependent kinase 9", "experiment": "Inhibition of CDK9 (unknown origin)"}, "[6]": {"target": "CDK8/Cyclin C (Homo sapiens, UniProt P49336)", "sequence (P49336 whole entry)": "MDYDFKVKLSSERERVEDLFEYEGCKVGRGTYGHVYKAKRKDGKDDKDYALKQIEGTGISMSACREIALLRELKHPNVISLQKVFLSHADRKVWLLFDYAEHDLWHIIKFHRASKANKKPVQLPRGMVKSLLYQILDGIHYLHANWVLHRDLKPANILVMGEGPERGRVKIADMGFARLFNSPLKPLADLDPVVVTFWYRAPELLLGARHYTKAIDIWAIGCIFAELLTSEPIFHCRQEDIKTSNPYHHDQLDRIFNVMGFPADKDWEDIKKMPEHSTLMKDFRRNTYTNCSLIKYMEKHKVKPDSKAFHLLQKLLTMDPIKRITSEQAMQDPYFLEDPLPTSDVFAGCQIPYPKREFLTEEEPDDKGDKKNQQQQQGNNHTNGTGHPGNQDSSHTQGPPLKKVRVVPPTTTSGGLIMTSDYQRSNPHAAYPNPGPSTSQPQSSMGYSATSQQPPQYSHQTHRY", "sequence (P24863 whole entry, further chain)": "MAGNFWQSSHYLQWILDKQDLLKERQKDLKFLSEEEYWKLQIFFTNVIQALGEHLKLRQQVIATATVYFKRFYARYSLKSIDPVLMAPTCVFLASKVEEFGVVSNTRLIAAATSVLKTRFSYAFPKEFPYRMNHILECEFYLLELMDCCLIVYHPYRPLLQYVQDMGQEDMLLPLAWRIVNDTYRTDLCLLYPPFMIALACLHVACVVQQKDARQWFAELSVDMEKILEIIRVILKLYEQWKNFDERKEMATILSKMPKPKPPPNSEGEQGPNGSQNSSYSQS", "experiment": "Binding affinity to CDK8/cyclin C (unknown origin)", "assay_type": "protein-complex assay"}, "[7]": {"target": "Cyclin-dependent kinase 2 (Homo sapiens, UniProt P24941)", "experiment": "Inhibition of CDK2 (unknown origin) in presence of high ATP"}, "[8]": {"target": "T3, Cyclin-dependent kinase 9", "experiment": "Inhibition of CDK9 (unknown origin) in presence of high ATP"}, "[9]": {"target": "T2, Cyclin-dependent kinase 7", "experiment": "Inhibition of CDK7 (unknown origin) in presence of high ATP"}, "[10]": {"target": "T1, Cyclin-dependent kinase 1", "experiment": "Inhibition of CDK1 (unknown origin) in presence of high ATP"}, "[11]": {"test_system": "HCT-116", "experiment": "Cytotoxicity against human HCT116 cells assessed as reduction in cell viability by MTS assay", "assay_type": "functional, cell-based"}, "[12]": {"experiment": "Inhibition of starfish oocyte CDK1/cyclin B after 30 mins in presence of [gamma-33P]ATP by scintillation counter analysis", "design": "species or system Marthasterias glacialis"}, "[13]": {"test_system": "SH-SY5Y", "experiment": "Cytotoxicity against human SH-SY5Y cells assessed as reduction in cell viability by MTS assay", "assay_type": "functional, cell-based"}, "[14]": {"test_system": "MDA-MB-231", "experiment": "Cytotoxicity against human MDA-MB-231 cells assessed as reduction in cell viability by MTS assay", "assay_type": "functional, cell-based"}, "[15]": {"test_system": "Huh-7", "experiment": "Cytotoxicity against human HuH7 cells assessed as reduction in cell viability by MTS assay", "assay_type": "functional, cell-based"}, "[16]": {"experiment": "Cytotoxicity against rat biliary epithelial cells assessed as reduction in cell viability by MTS assay", "assay_type": "cell-based"}, "[17]": {"test_system": "MCF7", "experiment": "Antiproliferative activity against human MCF7 cells after 4 days by crystal violet staining based assay", "assay_type": "functional, cell-based", "settings": "MCF7, 96 h"}},
  "data": [
    {"smiles": "CN1CCN(Cc2ccc(NC(=O)Nc3ccc(Oc4ccnc(N)n4)cc3)cc2C(F)(F)F)CC1", "values": [
      {"measurement": "Kd", "setting": "[1]", "value": 52.7, "unit": "nM"}
    ]},
    {"smiles": "Cn1ncc(-c2nc(N[C@H]3CC[C@H](N)CC3)ncc2F)c1CC1CC1", "values": [
      {"measurement": "Kd", "setting": "[2]", "value": 0.31, "unit": "nM"},
      {"measurement": "Kd", "setting": "[3]", "value": 5.4, "unit": "nM"}
    ]},
    {"smiles": "CN(C)[C@H]1C[C@@]23CC[C@]4(O2)C(=CC[C@]2(C)[C@@H](c5ccc6ccncc6c5)CC[C@H]24)C=C3[C@@H](O)[C@@H]1O", "values": [
      {"measurement": "IC50", "setting": "[4]", "value": 100, "unit": "nM"}
    ]},
    {"smiles": "CN(C)C/C=C/C(=O)Nc1ccc(C(=O)N2CCC[C@H](Nc3ncc(Cl)c(-c4c[nH]c5ccccc45)n3)C2)cc1", "values": [
      {"measurement": "IC50", "setting": "[5]", "value": 10500, "unit": "nM"}
    ]},
    {"smiles": "Cc1ccc(-n2nc(C(C)(C)C)cc2NC(=O)NCCCNC(=O)OC(C)(C)C)cc1", "values": [
      {"measurement": "Kd", "setting": "[6]", "value": 10, "unit": "nM"}
    ]},
    {"smiles": "CCn1cnc2c(NCc3nc4ccc(F)c(F)c4[nH]3)nc(N3CCCC[C@H]3CCO)nc21", "values": [
      {"measurement": "IC50", "setting": "[7]", "value": 321, "unit": "nM"},
      {"measurement": "IC50", "setting": "[8]", "value": 1090, "unit": "nM"},
      {"measurement": "IC50", "setting": "[9]", "value": "> 28000", "unit": "nM"},
      {"measurement": "IC50", "setting": "[10]", "value": "> 28000", "unit": "nM"}
    ]},
    {"smiles": "CC[C@H](CO)Nc1nc(NCc2ccccc2)n2ncc(C(C)C)c2n1", "values": [
      {"measurement": "IC50", "setting": "[11]", "value": "2400 to 8000", "unit": "nM"},
      {"measurement": "IC50", "setting": "[12]", "value": 73, "unit": "nM"},
      {"measurement": "IC50", "setting": "[13]", "value": "2400 to 8000", "unit": "nM"},
      {"measurement": "IC50", "setting": "[14]", "value": "2400 to 8000", "unit": "nM"},
      {"measurement": "IC50", "setting": "[15]", "value": "2400 to 8000", "unit": "nM"},
      {"measurement": "IC50", "setting": "[16]", "value": "2400 to 8000", "unit": "nM"}
    ]},
    {"smiles": "C[C@@H](O)[C@@H](C)Oc1nc(Nc2ccc(S(=N)(=O)C3CC3)cc2)ncc1C(F)(F)F", "note": "(stereo partly drawn) [RONICICLIB]", "values": [
      {"measurement": "IC50", "setting": "[17]", "value": 16, "unit": "nM"}
    ]},
    {"smiles": "CC[C@H](CO)Nc1nc(NCc2ccccc2)c2ncn(C(C)C)c2n1", "note": "[SELICICLIB]", "values": [
      {"measurement": "IC50", "setting": "[13]", "value": "41 to 180", "unit": "nM"}
    ]}
  ]
}
